The values below come from the supplement of paper PMC10307832.

Common to all, as to test: relative viability (nuclei count vs DMSO), 5 days (fraction); higher = more cells survive
Compound in assay [1]: CN(C)C(=N)NC(=N)N [Metformin] + N=C(N)NC(=N)NCCc1ccccc1 [Phenformin] (partner 250 µM)
The method, boiled down: (§1)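 The day after seeding in 1536-well plates, lung cancer cell lines were treated by pin tool with a single drug, or with a fixed anchor-drug dose together with five library-drug doses (not always all listed) in √10 steps. After 5 days, a combined fix-and-stain solution (final 0.05% Triton X-100, 1% formaldehyde, 1 ug/ml Hoechst) was added. Nuclei counted on 4× images gave relative viability as treated counts over vehicle counts, reported as the median of duplicate plates.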

Compound in assay [2]: N#CC1(c2ccc(NC(=O)c3cccnc3NCc3ccncc3)cc2)CCCC1 [Apatinib] + CC(=O)Nc1cccc(-n2c(=O)n(C3CC3)c(=O)c3c(Nc4ccc(I)cc4F)n(C)c(=O)c(C)c32)c1 [Trametinib] (partner 0.02 µM)
In short, it runs like this:
as §1

Compound in assay [3]: N#CC1(c2ccc(NC(=O)c3cccnc3NCc3ccncc3)cc2)CCCC1 [Apatinib] + CS(=O)(=O)N1CCN(Cc2cc3nc(-c4cccc5[nH]ncc45)nc(N4CCOCC4)c3s2)CC1 [Pictilisib] (partner 1 µM)
The method, boiled down:
as §1

Compound in assay [4]: N#CC1(c2ccc(NC(=O)c3cccnc3NCc3ccncc3)cc2)CCCC1 [Apatinib] + O=C(CCCCCCC(=O)Nc1ccccc1)NO [Vorinostat] (partner 1 µM)
The method, boiled down:
as §1

For the cell line ChaGo-K-1, the relative viability is 0.539 in assay [1] (first compound 10 µM); 0.498 in assay [1] (first compound 31.62 µM); 0.488 in assay [1] (first compound 100 µM); 0.489 in assay [1] (first compound 316.23 µM); 0.557 in assay [1] (first compound 1000 µM); 0.902 in assay [2] (first compound 0.08 µM). Further, the relative viability turned out to be 0.93 in assay [2] (first compound 0.253 µM); 0.862 in assay [2] (first compound 0.8 µM); 0.837 in assay [2] (first compound 2.53 µM); 0.691 in assay [2] (first compound 8 µM); 0.999 in assay [3] (first compound 0.253 µM); 0.721 in assay [3] (first compound 0.8 µM). The relative viability came to 0.638 in assay [3] (first compound 2.53 µM); 0.725 in assay [3] (first compound 8 µM); 0.838 in assay [4] (first compound 0.08 µM); 0.843 in assay [4] (first compound 0.253 µM); 0.789 in assay [4] (first compound 0.8 µM); 0.656 in assay [4] (first compound 2.53 µM). In addition, in assay [4] (first compound 8 µM), the relative viability worked out at 0.565.

Regarding EBC-1, the relative viability was found to be 0.36 in assay [3] (first compound 0.08 µM); 0.345 in assay [3] (first compound 0.253 µM); 0.299 in assay [3] (first compound 0.8 µM); 0.247 in assay [3] (first compound 2.53 µM); 0.157 in assay [3] (first compound 8 µM).

For the cell line EKVX, the relative viability in assay [1] (first compound 10 µM) stood at 0.23; in assay [1] (first compound 31.62 µM), 0.253; in assay [1] (first compound 100 µM), 0.239; in assay [1] (first compound 1000 µM), 0.189; in assay [2] (first compound 0.08 µM), 0.419; in assay [2] (first compound 0.253 µM), 0.362. Moreover, the relative viability amounted to 0.32 in assay [2] (first compound 0.8 µM); 0.392 in assay [2] (first compound 2.53 µM); 0.251 in assay [2] (first compound 8 µM); 0.454 in assay [3] (first compound 0.08 µM); 0.394 in assay [3] (first compound 0.253 µM); 0.435 in assay [3] (first compound 0.8 µM). The relative viability in assay [3] (first compound 2.53 µM) is 0.341; in assay [3] (first compound 8 µM), 0.401; in assay [4] (first compound 0.08 µM), 0.816; in assay [4] (first compound 0.253 µM), 0.752; in assay [4] (first compound 0.8 µM) it was 0.713; in assay [4] (first compound 2.53 µM) it was 0.589. Moreover, the relative viability in assay [4] (first compound 8 µM) turned out to be 0.57.

On to IA-LM, for which the relative viability in assay [3] (first compound 0.08 µM) came out at 0.384; in assay [3] (first compound 0.253 µM), 0.266; in assay [3] (first compound 0.8 µM), 0.363; in assay [3] (first compound 2.53 µM) it was 0.325; in assay [3] (first compound 8 µM), 0.287; in assay [4] (first compound 0.08 µM), 0.975. The relative viability in assay [4] (first compound 0.253 µM) was 0.968; in assay [4] (first compound 0.8 µM), 0.958; in assay [4] (first compound 2.53 µM), 0.765; in assay [4] (first compound 8 µM), 0.92.

With NCI-H522, the relative viability came to 0.716 in assay [1] (first compound 10 µM); 0.649 in assay [1] (first compound 31.62 µM); 0.713 in assay [1] (first compound 100 µM); 0.584 in assay [1] (first compound 316.23 µM); 0.712 in assay [1] (first compound 1000 µM); 0.799 in assay [2] (first compound 0.08 µM). The relative viability in assay [2] (first compound 0.253 µM) turned out to be 0.77; in assay [2] (first compound 0.8 µM), 0.731; in assay [2] (first compound 2.53 µM) it was 0.592; in assay [2] (first compound 8 µM), 0.68; in assay [4] (first compound 0.08 µM), 1.02; in assay [4] (first compound 0.253 µM), 1.02. Also, the relative viability in assay [4] (first compound 0.8 µM) was found to be 0.875; in assay [4] (first compound 2.53 µM), 0.672; in assay [4] (first compound 8 µM), 0.816.

With NCI-H1299, the relative viability in assay [3] (first compound 0.08 µM) came out at 0.882; in assay [3] (first compound 0.253 µM) it was 0.88; in assay [3] (first compound 0.8 µM), 0.738; in assay [3] (first compound 2.53 µM), 0.646; in assay [3] (first compound 8 µM), 0.406.

As to NCI-H1563, the relative viability in assay [1] (first compound 10 µM) was determined as 0.704; in assay [1] (first compound 31.62 µM) it was 0.702; in assay [1] (first compound 100 µM), 0.647; in assay [1] (first compound 316.23 µM), 0.663; in assay [1] (first compound 1000 µM), 0.56; in assay [3] (first compound 0.08 µM), 0.644. For the same cell line, the relative viability turned out to be 0.656 in assay [3] (first compound 0.253 µM), 0.62 in assay [3] (first compound 0.8 µM), 0.644 in assay [3] (first compound 2.53 µM) and 0.632 in assay [3] (first compound 8 µM).

On to NCI-H1648, for which the relative viability in assay [2] (first compound 0.08 µM) turned out to be 0.466; in assay [2] (first compound 0.253 µM) it was 0.467; in assay [2] (first compound 0.8 µM) it was 0.39; in assay [2] (first compound 2.53 µM), 0.537; in assay [2] (first compound 8 µM) it was 0.335; in assay [4] (first compound 0.08 µM), 0.682. Moreover, the relative viability in assay [4] (first compound 0.253 µM) was 0.503; in assay [4] (first compound 0.8 µM), 0.403; in assay [4] (first compound 2.53 µM) it was 0.54; in assay [4] (first compound 8 µM) it was 0.276.

As to NCI-H1703, the relative viability in assay [3] (first compound 0.08 µM) was 0.239; in assay [3] (first compound 0.253 µM), 0.272; in assay [3] (first compound 0.8 µM), 0.198; in assay [3] (first compound 2.53 µM), 0.222; in assay [3] (first compound 8 µM), 0.221.

NCI-H1792: the relative viability in assay [1] (first compound 10 µM) amounted to 0.412; in assay [1] (first compound 31.62 µM), 0.442; in assay [1] (first compound 100 µM), 0.396; in assay [1] (first compound 316.23 µM), 0.462; in assay [1] (first compound 1000 µM), 0.383; in assay [2] (first compound 0.08 µM), 0.433. Moreover, the relative viability in assay [2] (first compound 0.253 µM) amounted to 0.436; in assay [2] (first compound 0.8 µM), 0.349; in assay [2] (first compound 2.53 µM) it was 0.342; in assay [2] (first compound 8 µM), 0.302; in assay [3] (first compound 0.08 µM) it was 0.309; in assay [3] (first compound 0.253 µM) it was 0.278. Also, the relative viability was 0.334 in assay [3] (first compound 0.8 µM), 0.191 in assay [3] (first compound 2.53 µM) and 0.243 in assay [3] (first compound 8 µM).

With NCI-H2342, the relative viability came out at 0.59 in assay [1] (first compound 10 µM); 0.47 in assay [1] (first compound 31.62 µM); 0.494 in assay [1] (first compound 100 µM); 0.51 in assay [1] (first compound 316.23 µM); 0.572 in assay [1] (first compound 1000 µM); 0.918 in assay [2] (first compound 0.08 µM). Besides, the relative viability in assay [2] (first compound 0.253 µM) stood at 0.777; in assay [2] (first compound 0.8 µM), 0.916; in assay [2] (first compound 2.53 µM), 0.846; in assay [2] (first compound 8 µM), 0.834; in assay [4] (first compound 0.08 µM), 0.625; in assay [4] (first compound 0.253 µM), 0.655. The relative viability in assay [4] (first compound 0.8 µM) was found to be 0.763; in assay [4] (first compound 2.53 µM) it was 0.685; in assay [4] (first compound 8 µM) it was 0.72.

On to SW 900, for which the relative viability in assay [1] (first compound 10 µM) came to 0.805; in assay [1] (first compound 31.62 µM), 0.736; in assay [1] (first compound 100 µM), 0.665; in assay [1] (first compound 316.23 µM), 0.539; in assay [1] (first compound 1000 µM), 0.862; in assay [2] (first compound 0.08 µM) it was 0.757. The relative viability in assay [2] (first compound 0.253 µM) was determined as 0.801; in assay [2] (first compound 0.8 µM), 0.772; in assay [2] (first compound 2.53 µM) it was 0.623; in assay [2] (first compound 8 µM) it was 0.642; in assay [4] (first compound 0.08 µM), 0.577; in assay [4] (first compound 0.253 µM), 0.586. Besides, the relative viability in assay [4] (first compound 0.8 µM) was found to be 0.482; in assay [4] (first compound 2.53 µM) it was 0.355; in assay [4] (first compound 8 µM), 0.454.
